The supplement of paper PMC11061612

Legend:
[1] = compound: Cc1c2c(nn1C)CSCc1cc(n(C)n1)CSc1cc(c3ccccc3c1)OCCCc1c(C(=O)O)n(C)c3c-2c(Cl)ccc13 [AZD5991]; conditions: max 1 µM
Procedure, shortened: (§1)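 Cancer cell lines in 1536-well plates (7.5 μl DMEM/F12 or RPMI, 10% FBS) were held 24 hours at 37°C and 5% CO2 and then dosed for 72 hours at a final DMSO of typically 0.2%. Viability was taken from CellTiter-Glo 2.0 luminescence, scaled between blank-well and DMSO-well means. Curves were fitted as two-parameter logistic models with a non-linear mixed effects model, from which the single-agent IC50 was taken.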

[2] = compound: C[C@@H](Oc1cc(-c2cnn(C3CCNCC3)c2)cnc1N)c1c(Cl)ccc(F)c1Cl [Crizotinib]; conditions: max 10 µM
Procedure, shortened: as §1

[3] = compound: CC1=C(C(=CC=C1)Cl)NC(=O)C2=CN=C(S2)NC3=CC(=NC(=N3)C)N4CCN(CC4)CCO [Dasatinib]; conditions: max 2 µM
Procedure, shortened: as §1

[4] = compound: Cc1nc(-c2cn3c(n2)-c2ccc(-c4cnn(C(C)(C)C(N)=O)c4)cc2OCC3)n(C(C)C)n1 [Taselisib]; conditions: max 10 µM
Procedure, shortened: as §1

[5] = compound: C1CC(C1)(C(=O)[O-])C(=O)[O-].N.N.[Pt+2] [Carboplatin]; conditions: max 10 µM
Procedure, shortened: as §1

[6] = compound: N#Cc1cnc(Nc2cc(NC[C@H]3CNCCO3)c(C(F)(F)F)cn2)cn1 [SRA737]; conditions: max 10 µM
Procedure, shortened: as §1

[7] = compound: COc1nnc2ccc(N3CCC(c4ccc(OCCN5CCN(C)C(=O)[C@H]5C)cc4)CC3)nn12 [AZD5153]; conditions: max 1 µM
Procedure, shortened: as §1

[8] = compound: COc1cccc2c1C(=O)c1c(O)c3c(c(O)c1C2=O)C[C@@](O)(C(=O)CO)C[C@@H]3O[C@H]1C[C@H](N)[C@H](O)[C@H](C)O1 [Doxorubicin]; conditions: max 1 µM
Procedure, shortened: as §1

[9] = compound: C=CCn1c(=O)c2cnc(Nc3ccc(N4CCN(C)CC4)cc3)nc2n1-c1cccc(C(C)(C)O)n1 [AZD1775]; conditions: max 3 µM
Procedure, shortened: as §1

[10] = compound: CCc1c2c(nc3ccc(O)cc13)-c1cc3c(c(=O)n1C2)COC(=O)[C@]3(O)CC [SN-38]; conditions: max 0.3 µM
Procedure, shortened: as §1

[11] = compound: COc1cc2ncnc(Nc3ccc(F)c(Cl)c3)c2cc1OCCCN1CCOCC1 [Gefitinib]; conditions: max 10 µM
Procedure, shortened: as §1

[12] = compound: CC1=CN2[C@@H](C1)C=NC3=CC(=C(C=C3C2=O)OC)OCCCCCOC4=C(C=C5C(=C4)N=C[C@@H]6CC(=CN6C5=O)C)OC [SG3199]; conditions: max 0.001 µM
Procedure, shortened: as §1

[13] = compound: CC(=O)O[C@H]1C(=O)[C@@]2(C)[C@H]([C@H](OC(=O)c3ccccc3)[C@]3(O)C[C@H](OC(=O)[C@H](O)[C@@H](NC(=O)c4ccccc4)c4ccccc4)C(C)=C1C3(C)C)[C@]1(OC(C)=O)CO[C@@H]1C[C@@H]2O [Paclitaxel]; conditions: max 3 µM
Procedure, shortened: as §1

[14] = compound: NC1(c2ccc(-c3nc4ccn5c(=O)[nH]nc5c4cc3-c3ccccc3)cc2)CCC1 [MK-2206]; conditions: max 10 µM
Procedure, shortened: as §1

[15] = compound: CC(C)n1c(=O)n(C)c2cnc3cc(F)c(-c4ccc(OCCCN5CCCCC5)nc4)cc3c21 [AZD1390]; conditions: max 0.3 µM
Procedure, shortened: as §1

[16] = compound: COc1cc([C@@H]2c3cc4c(cc3[C@@H](O[C@@H]3O[C@@H]5CO[C@@H](C)O[C@H]5[C@H](O)[C@H]3O)[C@H]3COC(=O)[C@H]23)OCO4)cc(OC)c1O [Etoposide]; conditions: max 10 µM
Procedure, shortened: as §1

[17] = compound: Cc1cc2ncnn2cc1Nc1ncc2c(n1)n(C1CCOCC1)c(=O)n2C [AZD7648]; conditions: max 10 µM
Procedure, shortened: as §1

[18] = compound: CN(CC[C@H](CSC1=CC=CC=C1)NC2=C(C=C(C=C2)S(=O)(=O)NC(=O)C3=CC=C(C=C3)N4CCC(CC4)[C@H](C5=CC=CC=C5C6=CC=C(C=C6)Cl)O)S(=O)(=O)C(F)(F)F)CCO [AZD4320]; conditions: max 1 µM
Procedure, shortened: as §1

[19] = compound: O=C(Nc1ccc2[nH]nc(-c3ccncc3)c2c1)[C@@H]1CCN(CC(=O)N2CCN(c3ccc(-c4ncccn4)cc3)CC2)C1; conditions: max 5 µM
Procedure, shortened: as §1

[20] = compound: O=C(c1cc(Cc2n[nH]c(=O)c3ccccc23)ccc1F)N1CCN(C(=O)C2CC2)CC1 [Olaparib]; conditions: max 10 µM
Procedure, shortened: as §1

[21] = compound: O=c1[nH]cc(F)c(=O)[nH]1 [5-Fluorouracil]; conditions: max 20 µM
Procedure, shortened: as §1

[22] = compound: CCN(CCO)CCCOc1ccc2c(Nc3cc(CC(=O)Nc4cccc(F)c4)[nH]n3)ncnc2c1 [AZD2811]; conditions: max 1 µM
Procedure, shortened: as §1

[23] = compound: Cn1cnc2c(F)c(Nc3ccc(Br)cc3Cl)c(C(=O)NOCCO)cc21 [Selumetinib]; conditions: max 10 µM
Procedure, shortened: as §1

[24] = compound: C[C@@H](Nc1cc(F)cc(F)c1)c1cc(C(=O)N(C)C)cc2c(=O)cc(N3CCOCC3)oc12 [AZD8186]; conditions: max 10 µM
Procedure, shortened: as §1

[25] = compound: C1CN(CCC1(C(=O)N[C@@H](CCO)C2=CC=C(C=C2)Cl)N)C3=NC=NC4=C3C=CN4 [AZD5363]; conditions: max 10 µM
Procedure, shortened: as §1

[26] = compound: CC(=O)c1c(C)c2cnc(Nc3ccc(N4CCNCC4)cn3)nc2n(C2CCCC2)c1=O [Palbociclib]; conditions: max 10 µM
Procedure, shortened: as §1

[27] = compound: COc1cc(Nc2ncc3c(n2)-c2ccc(Cl)cc2C(c2c(F)cccc2OC)=NC3)ccc1C(=O)O [Alisertib]; conditions: max 10 µM
Procedure, shortened: as §1

[28] = compound: C[C@@H]1COCCN1C2=NC(=NC(=C2)C3(CC3)[S@](=N)(=O)C)C4=C5C=CNC5=NC=C4 [AZD6738]; conditions: max 10 µM
Procedure, shortened: as §1

[29] = compound: Nc1ccn([C@@H]2O[C@H](CO)[C@@H](O)C2(F)F)c(=O)n1 [Gemcitabine]; conditions: max 0.3 µM
Procedure, shortened: as §1

[30] = compound: CN(C)CCCOc1ccc(-c2ccc3ncc4c(c3c2)n(C2CCOCC2)c(=O)n4C)cn1 [AZD0156]; conditions: max 3 µM
Procedure, shortened: as §1

[31] = compound: CC1(C)CCC(CN2CCN(c3ccc(C(=O)NS(=O)(=O)c4ccc(NCC5CCOCC5)c([N+](=O)[O-])c4)c(Oc4cnc5[nH]ccc5c4)c3)CC2)=C(c2ccc(Cl)cc2)C1 [Venetoclax]; conditions: max 1 µM
Procedure, shortened: as §1

[32] = compound: CC(=O)Nc1cccc(-n2c(=O)n(C3CC3)c(=O)c3c(Nc4ccc(I)cc4F)n(C)c(=O)c(C)c32)c1 [Trametinib]; conditions: max 1 µM
Procedure, shortened: as §1

[33] = compound: C[C@@H](c1ccc2nccn2c1)n1nnc2ncc(-c3cnn(C)c3)nc21 [Savolitinib]; conditions: max 1 µM
Procedure, shortened: as §1

[34] = compound: CS(=O)(=O)CCNCc1ccc(-c2ccc3ncnc(Nc4ccc(OCc5cccc(F)c5)c(Cl)c4)c3c2)o1 [Lapatinib]; conditions: max 10 µM
Procedure, shortened: as §1

[35] = compound: COc1cccc(OCCCN)c1-c1cc(Nc2cnc(C#N)cn2)n[nH]1 [Prexasertib]; conditions: max 1 µM
Procedure, shortened: as §1

Cell Line | IC50, cell viability 72 h [1] | IC50, cell viability 72 h [2] | IC50, cell viability 72 h [3] | IC50, cell viability 72 h [4] | IC50, cell viability 72 h [5] | IC50, cell viability 72 h [6] | IC50, cell viability 72 h [7] | IC50, cell viability 72 h [8] | IC50, cell viability 72 h [9] | IC50, cell viability 72 h [10] | IC50, cell viability 72 h [11] | IC50, cell viability 72 h [12] | IC50, cell viability 72 h [13] | IC50, cell viability 72 h [14] | IC50, cell viability 72 h [15] | IC50, cell viability 72 h [16] | IC50, cell viability 72 h [17] | IC50, cell viability 72 h [18] | IC50, cell viability 72 h [19] | IC50, cell viability 72 h [20] | IC50, cell viability 72 h [21] | IC50, cell viability 72 h [22] | IC50, cell viability 72 h [23] | IC50, cell viability 72 h [24] | IC50, cell viability 72 h [25] | IC50, cell viability 72 h [26] | IC50, cell viability 72 h [27] | IC50, cell viability 72 h [28] | IC50, cell viability 72 h [29] | IC50, cell viability 72 h [30] | IC50, cell viability 72 h [31] | IC50, cell viability 72 h [32] | IC50, cell viability 72 h [33] | IC50, cell viability 72 h [34] | IC50, cell viability 72 h [35]
L-1236 (Hodgkin's Lymphoma) | > 1000 nM | 1940 nM | > 2000 nM | 9380 nM | > 10000 nM | 969 nM | 13.2 nM | > 1000 nM | 85.4 nM | 62.4 nM | > 10000 nM | > 1 nM | 36.2 nM | 8400 nM | > 300 nM | 3350 nM | > 10000 nM | 89.5 nM | > 5000 nM | > 10000 nM | > 20000 nM | > 1000 nM | > 10000 nM | 2080 nM | 2810 nM | 6340 nM | > 10000 nM | 3960 nM | 17.7 nM | > 3000 nM | 861 nM | > 1000 nM | > 1000 nM | > 10000 nM | 32.7 nM
HSC-39 (Gastric Carcinoma) | 55.6 nM | 2060 nM | > 2000 nM | 791 nM | > 10000 nM | 519 nM | 322 nM | 160 nM | 398 nM | 7.39 nM | > 10000 nM | > 1 nM | 4.55 nM | > 10000 nM | > 300 nM | 1230 nM | > 10000 nM | > 1000 nM | 2880 nM | > 10000 nM | 16600 nM | 150 nM | > 10000 nM | > 10000 nM | > 10000 nM | 4370 nM | < 10 nM | 538 nM | 11.7 nM | > 3000 nM | 561 nM | 423 nM | > 1000 nM | 5620 nM | 4.86 nM
NCI-H2342 (Lung Adenocarcinoma) | > 1000 nM | > 10000 nM | > 2000 nM | > 10000 nM | > 10000 nM | > 10000 nM | > 1000 nM | > 1000 nM | > 3000 nM | > 300 nM | > 10000 nM | > 1 nM | 27 nM | > 10000 nM | > 300 nM | > 10000 nM | > 10000 nM | > 1000 nM | > 5000 nM | > 10000 nM | > 20000 nM | > 1000 nM | > 10000 nM | > 10000 nM | > 10000 nM | > 10000 nM | > 10000 nM | > 10000 nM | > 300 nM | > 3000 nM | > 1000 nM | > 1000 nM | > 1000 nM | > 10000 nM | > 1000 nM
RKN (Other Solid Carcinomas) | > 1000 nM | > 10000 nM | 1740 nM | > 10000 nM | > 10000 nM | > 10000 nM | > 1000 nM | > 1000 nM | 2300 nM | > 300 nM | > 10000 nM | > 1 nM | 40.8 nM | > 10000 nM | > 300 nM | > 10000 nM | > 10000 nM | > 1000 nM | > 5000 nM | > 10000 nM | > 20000 nM | > 1000 nM | > 10000 nM | > 10000 nM | > 10000 nM | > 10000 nM | > 10000 nM | > 10000 nM | > 300 nM | > 3000 nM | > 1000 nM | > 1000 nM | > 1000 nM | > 10000 nM | 267 nM
OPM-2 (Plasma Cell Myeloma) | 32.3 nM | 4230 nM | > 2000 nM | 815 nM | > 10000 nM | 4980 nM | 12.6 nM | 754 nM | 559 nM | 108 nM | > 10000 nM | > 1 nM | 6.68 nM | 4970 nM | > 300 nM | 9350 nM | > 10000 nM | 691 nM | > 5000 nM | > 10000 nM | > 20000 nM | > 1000 nM | > 10000 nM | > 10000 nM | 1120 nM | 8600 nM | 5670 nM | 3920 nM | 98 nM | > 3000 nM | > 1000 nM | 670 nM | > 1000 nM | > 10000 nM | 21.3 nM
